# Reference: ChEMBL document CHEMBL4257221, “Peptides comprising non-natural amino acids and methods of making and using the same” (2016)
# Active and inactive are the calls of the source. The rule behind the calls is not given here. Numbered stars: 1 amine (or outer) side, 2 acyl side, 3 side chain; on linkers, the order of the positions; unused ones are H or OH. Square brackets hold non-standard residues; d marks the D form. Peptide text beside a SMILES is read from it. ξ: configuration not given here. X1 = O=C([C@H]1CCC[C@@H]1N[*:1])[*:2]; X2 = O=C([C@H]1CNC[C@@H]1N[*:1])[*:2]; ξβ3hL = CC(C)CC(N)CC(=O)O; ξβ3hK = NCCCCC(N)CC(=O)O; ξβ3hT = CC(O)C(N)CC(=O)O; ξβ3hV = CC(C)C(N)CC(=O)O; βAla = NCCC(=O)O
# What was measured:
# [1] = system: Mus musculus; test: (§1) Anti-parkinson's activity in MPTP-induced C57BL/6 mouse model of Parkinson's disease receiving adaptive transfer of splenocytes from 15 ug/day/5 days, ip compound treated donor mouse assessed as TH-positive neurons survival rate in substantia nigra measured on day 7 post MPTP intoxication by FJ-C staining based assay (reference value: 24.5%); format: functional
# [2] = system: Mus musculus; test: as §1, with “nigra at 15 ug/day, ip for 5 days” for “nigra”, “relative to control” for “(reference value: 24.5%)”; format: functional
# [3] = system: Mus musculus; test: Stimulation of Treg cells function in C57BL/6 mouse splenocytes assessed as suppression of anti-CD3-stimulated effector T cell proliferation pretreated ip daily for 5 days followed by splenocytes isolation and co-culture with untreated splenocytes at 1:1 ratio; format: functional, organism-based
# [4] = system: Mus musculus; test: Stimulation of Treg cells function in C57BL/6 mouse splenocytes assessed as suppression of anti-CD3-stimulated CD4+/CD25- naive T cells proliferation at 300 ug, ip pretreated daily for 5 days followed by splenocytes isolation and co-culture with CD4+/CD25- naive T cells; format: functional, organism-based
# [5] = molecular target: Proteinase K (Engyodontium album, UniProt P06873); test: Stability of the compound assessed as Tritirachium album proteinase K-mediated compound hydrolysis at 250 uM by HPLC analysis; format: ADME; settings: parengyodontium album
# [6] = molecular target: Dipeptidyl peptidase 4 (Homo sapiens, UniProt P27487); test: Stability of the compound assessed as DPP4 (unknown origin)-mediated compound hydrolysis at 250 uM by HPLC analysis; format: ADME
# [7] = molecular target: Chymotrypsin (Homo sapiens, UniProt Q99895+P17538+P40313+Q6GPI1); test: Stability of the compound assessed as chymotrypsin (unknown origin)-mediated compound hydrolysis at 250 uM by HPLC analysis; format: ADME
# [8] = molecular target: T1, Vasoactive intestinal polypeptide receptor 1 (Homo sapiens, UniProt P32241); test: Agonist activity at human VIPR1 expressed in CHOK1 cells assessed as intracellular cAMP accumulation after 60 mins by PathHunter assay; format: functional, cell-based
# T1 sequence (P32241 whole entry): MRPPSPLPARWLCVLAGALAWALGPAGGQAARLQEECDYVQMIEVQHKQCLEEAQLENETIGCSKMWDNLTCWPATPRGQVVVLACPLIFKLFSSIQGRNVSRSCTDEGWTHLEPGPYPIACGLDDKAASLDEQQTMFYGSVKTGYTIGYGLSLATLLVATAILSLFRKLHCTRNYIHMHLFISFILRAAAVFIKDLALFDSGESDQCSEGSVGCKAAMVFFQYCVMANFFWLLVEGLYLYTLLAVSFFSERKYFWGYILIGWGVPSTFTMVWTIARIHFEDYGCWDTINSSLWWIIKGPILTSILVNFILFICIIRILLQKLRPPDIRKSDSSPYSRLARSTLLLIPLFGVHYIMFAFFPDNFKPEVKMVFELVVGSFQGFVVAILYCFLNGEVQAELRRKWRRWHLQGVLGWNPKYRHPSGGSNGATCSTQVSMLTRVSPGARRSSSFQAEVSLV
# [9] = molecular target: T2, Vasoactive intestinal polypeptide receptor 2 (Homo sapiens, UniProt P41587); test: Agonist activity at human VIPR2 expressed in CHOK1 cells assessed as intracellular cAMP accumulation after 60 mins by PathHunter assay; format: functional, cell-based
# T2 sequence (P41587 whole entry): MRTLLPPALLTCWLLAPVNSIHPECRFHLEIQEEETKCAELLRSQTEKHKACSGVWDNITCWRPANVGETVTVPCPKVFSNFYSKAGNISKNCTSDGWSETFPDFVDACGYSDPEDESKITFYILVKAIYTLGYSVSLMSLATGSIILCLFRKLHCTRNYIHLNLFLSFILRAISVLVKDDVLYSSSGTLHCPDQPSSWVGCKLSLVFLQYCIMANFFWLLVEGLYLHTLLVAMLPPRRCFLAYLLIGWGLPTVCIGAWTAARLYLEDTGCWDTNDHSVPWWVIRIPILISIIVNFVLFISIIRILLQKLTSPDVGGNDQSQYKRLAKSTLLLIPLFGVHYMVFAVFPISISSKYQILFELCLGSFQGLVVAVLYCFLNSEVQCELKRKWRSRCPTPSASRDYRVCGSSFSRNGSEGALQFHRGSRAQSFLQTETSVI
# [10] = molecular target: T1, Vasoactive intestinal polypeptide receptor 1; test: Induction of VIPR1 receptor internalization in CHOK1 cells expressing human VIPR1 by beta-galactosidase reporter gene assay; format: functional, cell-based
# Sequence of Proteinase K (P06873 whole entry): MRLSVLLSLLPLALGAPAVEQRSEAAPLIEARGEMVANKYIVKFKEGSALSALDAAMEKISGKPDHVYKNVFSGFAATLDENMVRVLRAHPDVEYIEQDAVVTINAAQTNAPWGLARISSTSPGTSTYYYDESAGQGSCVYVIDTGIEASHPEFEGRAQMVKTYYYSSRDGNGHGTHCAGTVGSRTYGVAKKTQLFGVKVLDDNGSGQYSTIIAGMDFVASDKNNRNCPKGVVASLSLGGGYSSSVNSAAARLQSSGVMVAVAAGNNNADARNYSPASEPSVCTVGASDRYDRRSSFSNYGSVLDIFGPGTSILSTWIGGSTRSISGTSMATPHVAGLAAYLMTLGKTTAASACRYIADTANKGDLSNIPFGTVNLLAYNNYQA
# Sequence of Dipeptidyl peptidase 4 (P27487 whole entry): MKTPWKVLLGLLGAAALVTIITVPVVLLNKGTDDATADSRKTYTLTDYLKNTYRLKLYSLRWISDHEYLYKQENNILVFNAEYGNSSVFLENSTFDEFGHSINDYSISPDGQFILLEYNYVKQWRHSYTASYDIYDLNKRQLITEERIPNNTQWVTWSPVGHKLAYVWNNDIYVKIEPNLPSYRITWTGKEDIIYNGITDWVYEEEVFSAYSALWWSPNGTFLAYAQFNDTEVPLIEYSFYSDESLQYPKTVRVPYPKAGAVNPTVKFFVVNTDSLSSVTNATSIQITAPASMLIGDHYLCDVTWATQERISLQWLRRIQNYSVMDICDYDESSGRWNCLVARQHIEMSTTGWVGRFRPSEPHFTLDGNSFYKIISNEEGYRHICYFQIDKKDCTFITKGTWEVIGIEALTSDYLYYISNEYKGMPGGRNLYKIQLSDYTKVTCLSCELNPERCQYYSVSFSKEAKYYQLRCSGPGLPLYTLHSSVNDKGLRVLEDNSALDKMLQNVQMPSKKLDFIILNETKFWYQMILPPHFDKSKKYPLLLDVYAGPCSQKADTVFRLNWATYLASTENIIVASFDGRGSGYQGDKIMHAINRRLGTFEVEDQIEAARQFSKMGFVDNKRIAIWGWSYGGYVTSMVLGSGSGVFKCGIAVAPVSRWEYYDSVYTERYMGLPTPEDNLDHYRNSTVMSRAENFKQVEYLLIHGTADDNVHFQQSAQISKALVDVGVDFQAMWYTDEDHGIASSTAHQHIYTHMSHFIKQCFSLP
Compound,Survival [1] [%],Survival [2] [%],Activity [3],Activity [4],Stability [5],Stability [6],Stability [7],EC50 [8] [nM],EC50 [9] [nM],EC50 [10] [nM]
CC[C@H](C)[C@H](NC(=O)C1CCCN1C(=O)[C@H](CCC(N)=O)NC(=O)[C@H](CC(C)C)NC(=O)[C@H](Cc1ccc(O)cc1)NC(=O)[C@H](CCCCN)NC(=O)[C@H](CCCCN)NC(=O)[C@H](C)NC(=O)C1CCCN1C(=O)[C@@H](NC(=O)[C@H](CCC(N)=O)NC(=O)C1CCCN1C(=O)[C@H](CCCNC(=N)N)NC(=O)[C@H](CC(C)C)NC(=O)[C@H](CCCNC(=N)N)NC(=O)[C@@H](NC(=O)[C@H](Cc1ccc(O)cc1)NC(=O)[C@H](CC(N)=O)NC(=O)[C@H](CC(=O)O)NC(=O)[C@@H](NC(=O)[C@H](Cc1ccccc1)NC(=O)[C@@H](NC(=O)[C@H](C)NC(=O)[C@H](CC(=O)O)NC(=O)[C@H](CO)NC(=O)[C@@H](N)Cc1cnc[nH]1)C(C)C)[C@@H](C)O)[C@@H](C)O)C(C)C)C(=O)N[C@@H](CCCCN)C(=O)N[C@@H](CC(N)=O)C(=O)N[C@@H](CCCCN)C(=O)N[C@@H](CCCNC(=N)N)C(=O)N[C@@H](Cc1ccc(O)cc1)C(=O)O (some centres undefined),50.2,69.1,Dose-dependent effect,Active,–,–,–,–,–,–
CCCC[C@H](NC(=O)[C@H](CCC(N)=O)NC(=O)[C@H](CCCCN)NC(=O)[C@H](CCCNC(=N)N)NC(=O)[C@H](CC(C)C)NC(=O)[C@H](CCCCN)NC(=O)[C@@H](NC(=O)[C@H](Cc1ccc(O)cc1)NC(=O)[C@H](CC(N)=O)NC(=O)[C@H](CCC(=O)OC(=O)[C@H](C)NC(=O)[C@H](CC(=O)O)NC(=O)[C@H](CO)NC(=O)[C@H](Cc1c[nH]cn1)NC(C)=O)NC(=O)[C@@H](NC(=O)[C@H](Cc1ccccc1)NC(=O)[C@@H](N)C(C)C)[C@@H](C)O)[C@@H](C)O)C(=O)N[C@@H](C)C(=O)N[C@@H](C)C(=O)N[C@@H](CCCCN)C(=O)N[C@@H](CCCCN)C(=O)N[C@@H](Cc1ccc(O)cc1)C(=O)N[C@@H](CC(C)C)C(=O)N[C@@H](CC(N)=O)C(=O)NC(=O)[C@@H](NC(=O)CNC(=O)CNC(=O)[C@@H]1CCCCN[C@@H](CC(N)=O)C(=O)N[C@@H](CC(C)C)C(=O)N[C@@H](CCCCN)C(=O)N1)[C@@H](C)O,–,–,–,–,Stable,Stable,Stable,–,–,–
CC(=O)N[C@@H](Cc1cnc[nH]1)C(=O)N[C@H]1CCC[C@@H]1C(=O)N[C@@H](CC(=O)O)C(=O)N[C@@H](C)C(=O)N[C@H]1CCC[C@@H]1C(=O)N[C@@H](Cc1ccccc1)C(=O)N[C@H](C(=O)N[C@@H](CCC(=O)O)C(=O)N[C@@H](CC(N)=O)C(=O)N[C@@H](Cc1ccc(O)cc1)C(=O)N[C@H](C(=O)N[C@@H](CCCCN)C(=O)N[C@@H](CC(C)C)C(=O)N[C@@H](CCCNC(=N)N)C(=O)N[C@@H](CCCCN)C(=O)N[C@@H](CCC(N)=O)C(=O)N[C@@H](CC(C)C)C(=O)N[C@@H](C)C(=O)N[C@@H](C)C(=O)N[C@H]1CNC[C@@H]1C(=O)N[C@@H](CCCCN)C(=O)N[C@@H](Cc1ccc(O)cc1)C(=O)N[C@H]1CCC[C@@H]1C(=O)N[C@@H](CC(N)=O)C(=O)N[C@@H](CC(=O)O)C(=O)N[C@@H](CC(C)C)C(=O)NC(CCCCN)CC(=O)N[C@@H](CCCCN)C(=O)NCC(=O)NCCC(=O)N[C@H](C(=O)O)[C@@H](C)O)[C@@H](C)O)[C@@H](C)O (stereo partly drawn) (Ac-H[X1]DA[X1]FTENYTKLRKQLAA[X2]KY[X1]NDL[ξβ3hK]KG[βAla]T-OH),–,–,–,–,Stable,Stable,Stable,133,0.646,–
CC[C@H](C)[C@H](NC(=O)[C@H](C)NC(=O)[C@H](CC(N)=O)NC(=O)CC(CC(C)C)NC(=O)[C@H](Cc1ccc(O)cc1)NC(=O)[C@H](CCCCN)NC(=O)[C@H](CCCCN)NC(=O)CC(NC(=O)[C@H](C)NC(=O)[C@H](CC(C)C)NC(=O)[C@H](CCC(N)=O)NC(=O)CC(CCCCN)NC(=O)[C@H](CCCNC(=N)N)NC(=O)[C@H](CC(C)C)NC(=O)[C@H](CCCNC(=N)N)NC(=O)CC(NC(=O)[C@H](Cc1ccc(O)cc1)NC(=O)[C@H](CC(N)=O)NC(=O)[C@H](CC(=O)O)NC(=O)[C@@H](NC(=O)[C@H](Cc1ccccc1)NC(=O)[C@@H](NC(=O)[C@H](C)NC(=O)[C@H](CC(=O)O)NC(=O)[C@H](CO)NC(=O)[C@@H](N)Cc1cnc[nH]1)C(C)C)[C@@H](C)O)C(C)O)C(C)C)C(=O)NC(CC(=O)N[C@@H](CC(N)=O)C(=O)O)CC(C)C (stereo partly drawn) (H-HSDAVFTDNY[ξβ3hT]RLR[ξβ3hK]QLA[ξβ3hV]KKY[ξβ3hL]NAI[ξβ3hL]N-OH),–,–,–,–,–,–,–,2.17,–,10.2
